Assay results: patent US4243671A, “Inhibition of thromboxane synthetase formation and arachidonic acid-induced platelet aggregation and bronchoconstriction” (E. R. Squibb & Sons, Inc., priority 1979, dated 1981)

Columns and labels:
thromboxane synthetase [1] = conditions: cited from earlier work
[2] = system: arachidonic acid induced platelet aggregation; test: Inhibition of arachidonic acid induced platelet aggregation in platelet-rich plasma; assay type: cell-based; conditions: arachidonic acid 800 μM, human PRP
Method: Venous blood is collected from the antecubital vein of human volunteers who are drug free for at least one week. The blood is collected by gravity into plastic transfer bags containing 0.38% sodium citrate as the anticoagulant. Platelet-rich plasma (PRP) is prepared by centrifuging the citrated blood at 200×g for 10 min at 25° C. Platelet-poor plasma (PPP) is obtained by centrifuging the PRP at 2500×g for 30 min at 25° C. Platelet aggregation is studied photometrically (Boron, Nature 194:927-929,1962) using a Chronolog aggregometer connected to a linear recorder. The test compound is dissolved in methanol and preincubated with PRP for 2.5 minutes at 37° C. Arachidonic acid (800 μM) dissolved in 0.1 M Tris-HCl buffer, pH 8.5, is then added and the optical transmission recorded for at least 3 minutes. The rate of increase in optical transmission, which is a measure of the initial velocity of aggregation, is measured by determining the slope of the steepest part of the curve.

Thromboxane synthetase [3] = molecular target: T1, Thromboxane synthetase (Homo sapiens, UniProt P24557); test: Inhibition of thromboxane synthetase (platelet membrane preparation, 14C-arachidonic acid to thromboxane-B2); assay type: biochemical
T1 construct: from tissue; host or cells: blood platelets from fresh platelet-rich plasma (PRP), lysed membrane suspension
T1 sequence (P24557 1-533): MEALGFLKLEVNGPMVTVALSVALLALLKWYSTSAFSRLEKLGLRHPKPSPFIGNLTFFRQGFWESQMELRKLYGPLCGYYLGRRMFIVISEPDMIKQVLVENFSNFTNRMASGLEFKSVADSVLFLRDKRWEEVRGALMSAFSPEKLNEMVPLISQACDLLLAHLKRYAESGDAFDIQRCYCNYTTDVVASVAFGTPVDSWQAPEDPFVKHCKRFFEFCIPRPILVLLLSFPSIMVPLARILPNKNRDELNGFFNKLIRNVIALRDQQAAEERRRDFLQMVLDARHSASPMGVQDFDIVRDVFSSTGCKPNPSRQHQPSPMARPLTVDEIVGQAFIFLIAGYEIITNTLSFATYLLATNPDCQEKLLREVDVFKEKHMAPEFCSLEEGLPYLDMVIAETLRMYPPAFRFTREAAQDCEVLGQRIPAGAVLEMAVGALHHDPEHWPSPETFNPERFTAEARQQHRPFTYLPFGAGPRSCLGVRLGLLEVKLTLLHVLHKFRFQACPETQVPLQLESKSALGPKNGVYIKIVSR
Method: Thromboxane synthetase is prepared from fresh PRP according to the procedure of Nijkamp et al, supra. Briefly, a platelet pellet is washed in physiological saline, and the platelets lysed by a combination of freeze-thaw cycles and homogenizations. This platelet membrane suspension is divided into small aliquots and stored at -70° C. until used. Thromboxane synthetase activity is determined by incubating the platelet preparation with ^14 C-arachidonic acid in a reaction mixture containing epinephrine, reduced glutathione, and Tris-HCl buffer, pH 7.5. Thromboxane synthetase activity is determined in the presence of the test compound dissolved in methanol, or of the methanol control. The reaction is carried out for 3-5 minutes at 37° C. and stopped by the addition of 2N HCl. In some instances, aliquots of the reaction mixtures are spotted directly on Quantum thin layer plates for thin layer chromatography of reaction mixture components. In other experiments, the lipids in the reaction mixture are extracted into ethyl acetate. After the ethyl acetate is taken to dryness, the lipid residue is dissolved in ethanol and aliquots spotted on the thin layer plates. In either instance, the plates are developed using chloroform:methanol:acetic acid (90:5:5) as solvent system. […] The radioactivity that migrates in the area of thromboxane-B2 is then determined by liquid scintillation spectrometry.

[4] = system: arachidonic acid-induced bronchoconstriction; test: Inhibition of arachidonic acid-induced bronchoconstriction in the anesthetized guinea pig; assay type: in vivo
Method: (§1) Male guinea pigs weighing 480-520 g are anesthetized with urethane (1.5 g/kg, i.p.). Spontaneous respiration is arrested with succinylchloline chloride (1.5 mg/kg, i.p.). The guinea pigs are artificially ventilated with a Palmer respiration pump through a tracheal cannula at a rate of 72 strokes/min and a stroke volume of 3 ml.
(§2) Pulmonary resistance and dynamic compliance are determined by the method described by Amdur and Mead, "Mechanics of Respiration in Unanesthetized Guinea Pigs", Amer. J. Physiol. 192, 364-368, as modified by Giles et al. (1973), "The Bronchodilator and Cardiac Stimulant Effects of Th 1165A, Salbutamol, and Isoproterenol", J. Pharmacol. Exp. Ther. 186, 472-481. Respiratory flow is measured with a Fleisch pneumotachograph (No. 000) and a Validyne (MP 45) differential pressure transducer. Transpulmonary pressure is determined by monitoring the difference between pressure in the external end of a tracheal cannula and the pressure in the pleural cavity by means of a Validyne MP 45 differential pressure transducer. The flow and pressure signals are fed into an on-line analog Pulmonary Mechanics Computer (Buxco Electronics, Inc.) which provides calculation of pulmonary resistance and dynamic compliance. The computer output of flow, pressure, volume, resistance and dynamic compliance are recorded on a Brush 260 recorder. Blood pressure is measured from a carotid artery with a Statham P23Db transducer and heart rate is derived from the pulse pressure. Both blood pressure and heart rate are recorded with the Buxco pulmonary mechanics computer. All parameters are digitalized by a Data Logger, Model DL-12 Buxco electronics and recorded on a Texas Instrument silent 700 ASR printer.
Arachidonic acid (AA) (0.25 mg/kg i.v.) is administered to groups of 4-5 guinea pigs 15 minutes before and 3 and 10 minutes after the administration of the test compound (0.1, 0.3 and 1.0 mg/kg i.v.). The administration of AA causes substantial increases in pulmonary resistance (R) and decrease in dynamic compliance (C) of 70% and 50% respectively. […] The inhibitory effect of the test compound lasts for less than 10 minutes.

[5] = system: histamine-induced bronchoconstriction; test: Specificity test: histamine-induced bronchoconstriction in the anesthetized guinea pig; assay type: in vivo; conditions: 1.0 mg/kg i.v.; histamine 5.0 μg/kg i.v.
Method: as §1
as §2, with “The flow and pressure signals are fed into an on-line analog Pulmonary Mechanics Computer (Buxco Electronics, Inc.) which provides calculation of pulmonary resistance and dynamic compliance.” left out, “All parameters are digitalized by a Data Logger, Model DL-12 Buxco electronics and recorded on a Texas Instrument silent 700 ASR printer.” left out

Row | Compound | inhibition of thromboxane synthetase (literature) (thromboxane synthetase [1]) | IC50 ([2]; read-out: I50 (concentration to achieve 50% inhibition) of platelet aggregation) [µM] | inhibition at 1000 µM ([2]; screening concentration 1 mM, read-out: effectiveness in inhibiting platelet aggregation) [%] | inhibition at 1000 µM (Thromboxane synthetase [3]; at 1000 μM) [%] | IC50 (Thromboxane synthetase [3]; read-out: I50 thromboxane synthetase) [µM] | duration of hypertension ([4]; 0.1, 0.3 and 1.0 mg/kg i.v.) | effect of compound alone on R, C or heart rate ([4]; 0.1, 0.3 and 1.0 mg/kg i.v.) | effect on blood pressure ([4]; 0.1, 0.3 and 1.0 mg/kg i.v.) | duration of inhibitory effect on AA-induced changes ([4]; 0.1-1.0 mg/kg i.v.) | effect on AA-induced changes in pulmonary resistance (R) and dynamic compliance (C) ([4]; 0.1-1.0 mg/kg i.v. given before AA 0.25 mg/kg i.v.) | effect on histamine-induced increases in R and decreases in C [5]
1 | c1c[nH]cn1 [imidazole] | specific inhibitor | – | – | – | – | – | – | – | – | – | –
2 | C(=Cc1ccccc1)Cn1ccnc1.Cl [test compound, 1-(3-phenyl-2-propenyl)-1H-imidazole, hydrochloride (1:1)] | – | 30 | 100 | 83 | 30 | up to 30 minutes | does not significantly alter | profound hypertension of long duration | less than 10 minutes | significant dose dependent decrease | not altered
